{"source": "patent US20150141523A1", "about": "“COMPOUNDS FOR USE IN THE TREATMENT OF AUTOIMMUNE INFLAMMATORY DISEASE” (Venantius Limited, priority 2012, published 2015)", "key": {"[1]": {"tested_on": "β-hexosaminidase release from RBL-2H3 cells", "conditions": "cited from earlier work"}, "[2]": {"tested_on": "BalbC mice", "experiment": "Arachidonic acid mouse ear oedema model", "assay_type": "in vivo", "conditions": "300 μg/ear in acetone, topical; arachidonic acid alone 86%", "method": "The arrachidonic mouse ear oedema model is an acute inflammation model based on activation of ecosanoid pathways. The mouse ear oedema model was performed using BalbC mice (25-35 g), of either sex. The ear was treated by the topical application (10 μl) of solvent (acetone 100%) or test drug (300 μg/ear in acetone) or Indomethacin (300 μg/ear in acetone). After one hour, oedema was induced by the topical application of arachidonic acid (10 μl at 0.4 g/ml in acetone). The width of each ear was measured, both before and 60 min after the induction of oedema, using a micrometer screw gauge. Ear oedema was calculated by comparing the ear width before and after induction of oedema and expressed as percentage normal. Animals were killed using CO2, without recovering from sedation."}, "[3]": {"tested_on": "Balb/C mice", "experiment": "Oxazolone contact hypersensitivity (CHS) mouse ear swelling", "assay_type": "in vivo", "conditions": "15 mg/kg; vehicle 107%", "method": "Female Balb/C mice (30-40 gms) were sensitised on day 0 with 20 μl of 2% oxazolone in acetone on each ear (10 μl on the inner and outer aspects of both ears). All mice were challenged on day 5 with 20 μl of 2% oxazolone in acetone only on the right ear; again, 10 μl on both the inner and outer aspects of the ear. Immediately following this, the mice were treated with test compound. The test compound was administered in exactly the same way as the oxazolone, with 10 μl on each side of the right ear. […] For the […] group, acetone was administered. All animals were killed 24 hrs later and the percentage increase in ear swelling was calculated. This was done in two ways. The thickness of the unchallenged left ear and the challenged right ear were measured using a micrometer caliper (μm). The increase in weight of both ears was also measured using a 5 mm biopsy punch (mgs). The percentage increase in oedema was then calculated for both weight and thickness by expressing the difference between the unchallenged left ear and the challenged right ear as a percentage of the left ear control."}, "[4]": {"tested_on": "IL-2 secretion from Jurkat T cells", "experiment": "IL-2 secretion from activated Jurkat T cells (ELISA)", "assay_type": "cell-based, human", "conditions": "for IL-2 [ ]pg/ml (1) / IL-2 % Control (1): experiment (1); for IL-2 % Control (1) / IL-2 % Control (2) / IL-2 % Control (3): relative to DMSO 0.1%; for IL-2 [ ]pg/ml (2) / IL-2 % Control (2): experiment (2); for IL-2 [ ]pg/ml (3) / IL-2 % Control (3): experiment (3)", "method": "The T cell line Jurkat 6.1 (ATCC) was used. Cells were pre-treated for 30 min with 1 μM or 10 μM of the respective compound and then stimulated with plate-bound anti-CD3 (BD Pharmingen) and anti-CD28 (AnCell). DMSO was used as vehicle control. The immunosuppressive agent Cyclosporine A was used as a control for inhibition of IL-2 production. After 24 hs the supernatant was collected and IL-2 secretion was measured by ELISA.\nJurkat T cells were cultured in RMPI-1640 medium containing 10 % Foetal Bovine Serum, Penicillin/Streptomycin and L-Glutamine in T-75cm2 flasks at 37° C. and 5 % CO2. Cells were seeded into new culture flasks at a density of 1-3×10^5 cells per ml and maintained at a density of 0.5−1×10^6 cells per ml.\n(§1) (A) Anti-TCR/CD28-mediated activation of Jurkat cells: Experiments involving anti-TCR/CD28-mediated activation of Jurkat T lymphocytes were carried out on 24-well cell culture plates. The plates were coated with a 1/100 dilution of rabbit anti-mouse IgG in sterile PBS (1×) and incubated overnight at 4OC. Unbound antibody was aspirated and the wells were gently rinsed with warm sterile PBS. The PBS was aspirated and the wells were coated with a 1/100 dilution of anti-TCR antibody (OKT-3) and a 1/200 dilution of anti-CD28 antibody (both antibodies pre-mixed prior to addition to the plates) in sterile PBS. The plates were then incubated for 1-2 hours at 37° C. Unbound antibody was aspirated and the wells were gently rinsed with warm PBS. The PBS was left on the plate until the Jurkat cells were ready to be added to the plate. The Jurkat cells were harvested from the T-75cm2 cell culture flasks and resuspended at a density of 0.5×10^6 cells per ml. The compounds were dissolved at a specified stock concentration (see results section) and diluted to the required concentration by adding the drug to the cell suspension. The cells were then pre-incubated with the compounds or with an equivalent volume of drug vehicle control (DMSO) for 30 minutes prior to adding the cell suspension to the antibody-coated plates. Cyclosporine A (1 μM) was used as a positive control to inhibit IL-2 production from activated T cells and was preincubated with the 6 cells as described above in parallel. The cells were then incubated on the plates with the acti-TCR/CD28 antibodies for 24 hours at 37° C. and 5% CO2 in a humidified atmosphere. After 24 hours, the cell suspension was removed from the plates and the cells were pelleted by centrifugation. The cell culture supernatant was saved and analysed for secreted IL-2 by ELISA. The cell pellet was saved and cell viability was measured using Acridine Orange/Ethidium Bromide cell viability staining solution.\n(B) PHA/PMA-mediated activation of Jurkat cells Jurkat cells were resuspended at a concentration of 0.5×10^6 cells per ml and the Pharmatrin compounds at the desired concentration or an equivalent volume of drug vehicle control (DMSO) were added to the cells and incubated for 30 minutes. Cyclosporine A (1 ∝M) was used as a positive control to inhibit IL-2 production from activated T cells and was preincubated with the cells as described above in parallel. PHA and PMA were added to the cell suspension (10 ∝g/ml and 10 ng/ml respectively) and the cells were plated onto uncoated 24-well plates. The cells were incubated on the plates for 24 hours at 37° C. and 5 % CO2 in a humidified atmosphere. After 24 hours, the cell suspension was removed from the plates and the cells were pelleted by centrifugation. The cell culture supernatant was saved and analysed for secreted IL-2 by ELISA.\nThe cell culture supernatants were analysed for IL-2 by ELISA (96-well plate format) using the Human IL-2 ELISA kit from R&D Systems Europe. This assay was carried out using the standard protocol outlined by the company. Samples and standards (recombinant human IL-2 provided by R&D Systems) were analysed in triplicate. […]"}, "[5]": {"tested_on": "Jurkat cells", "experiment": "Jurkat cell viability (Acridine Orange/Ethidium Bromide)", "assay_type": "cell-based", "method": "as §1\nThe cell pellet was resuspended in 20 μl of Acridine Orange/Ethidium Bromide staining solution. A portion of this cell suspension was placed on a haemocytometer and analysed under a fluorescence microscope. […] The ratio of viable cells: non-viable cells were calculated for each activation time point/drug treatment."}, "[6]": {"conditions": "RBL-2H3 cells, Inflamm. Res. 57 (2008)"}}, "note": "Read-outs that look alike come from different tables or passages of the source.", "data": [{"compound": "O[C@@H]1c2ccccc2C[C@]1(Cc1ccccc1)C1=Cc2ccccc2C1", "note": "(racemic) [Compound 5, (R,S and SR)2-Benzyl-2,3-dihydro-1H,1′H-2,2′-biinden-1-ol]", "values": [{"measurement": "inhibition of β-hexosaminidase release", "setting": "[1]; [6]", "value": "dose dependent inhibition"}]}, {"compound": "COc1ccc2c(c1)c(CC(=O)O)c(C)n2C(=O)c1ccc(Cl)cc1", "note": "[Indomethacin, reference compound]", "values": [{"measurement": "ear swelling (increase in ear thickness)", "setting": "[2]", "value": 40, "unit": "%"}]}, {"compound": "C[C@@H]1C[C@H]2[C@@H]3CCC4=CC(=O)C=C[C@]4(C)[C@@]3(F)[C@@H](O)C[C@]2(C)[C@@]1(O)C(=O)CO", "note": "[dexamethasone, reference compound]", "values": [{"measurement": "increase in ear punch weight", "setting": "[3]", "value": 42, "unit": "%"}]}, {"compound": "(R,S or SR)2-Benzyl-2,3-dihydro-1H,1′H-2,2′-biinden-1-ol [Compound 8]", "values": [{"measurement": "IL2 release from Jurkat cells", "setting": "[4]", "value": "inhibited IL2 release"}, {"measurement": "IL-2 [ ]pg/ml (1)", "setting": "[4]; 0.3 uM", "value": 44.20, "unit": "pg/mL"}, {"measurement": "IL-2 % Control (1)", "setting": "[4]; 0.3 uM", "value": 216.67, "unit": "%"}, {"measurement": "IL-2 [ ]pg/ml (2)", "setting": "[4]; 0.3 uM", "value": 50.10, "unit": "pg/mL"}, {"measurement": "IL-2 % Control (2)", "setting": "[4]; 0.3 uM", "value": 245.59, "unit": "%"}, {"measurement": "IL-2 [ ]pg/ml (3)", "setting": "[4]; 0.3 uM", "value": 107.03, "unit": "pg/mL"}, {"measurement": "IL-2 % Control (3)", "setting": "[4]; 0.3 uM", "value": 77.39, "unit": "%"}, {"measurement": "IL-2 [ ]pg/ml (1)", "setting": "[4]; 1 uM", "value": 37.95, "unit": "pg/mL"}, {"measurement": "IL-2 % Control (1)", "setting": "[4]; 1 uM", "value": 186.03, "unit": "%"}, {"measurement": "IL-2 [ ]pg/ml (2)", "setting": "[4]; 1 uM", "value": 39.65, "unit": "pg/mL"}, {"measurement": "IL-2 % Control (2)", "setting": "[4]; 1 uM", "value": 194.36, "unit": "%"}, {"measurement": "IL-2 [ ]pg/ml (3)", "setting": "[4]; 1 uM", "value": 111.75, "unit": "pg/mL"}, {"measurement": "IL-2 % Control (3)", "setting": "[4]; 1 uM", "value": 80.81, "unit": "%"}, {"measurement": "IL-2 [ ]pg/ml (1)", "setting": "[4]; 3 uM", "value": 34.45, "unit": "pg/mL"}, {"measurement": "IL-2 % Control (1)", "setting": "[4]; 3 uM", "value": 168.87, "unit": "%"}, {"measurement": "IL-2 [ ]pg/ml (2)", "setting": "[4]; 3 uM", "value": 36.00, "unit": "pg/mL"}, {"measurement": "IL-2 % Control (2)", "setting": "[4]; 3 uM", "value": 176.47, "unit": "%"}, {"measurement": "IL-2 [ ]pg/ml (3)", "setting": "[4]; 3 uM", "value": 102.92, "unit": "pg/mL"}, {"measurement": "IL-2 % Control (3)", "setting": "[4]; 3 uM", "value": 74.42, "unit": "%"}, {"measurement": "IL-2 [ ]pg/ml (1)", "setting": "[4]; 10 uM", "value": 20.15, "unit": "pg/mL"}, {"measurement": "IL-2 % Control (1)", "setting": "[4]; 10 uM", "value": 98.77, "unit": "%"}, {"measurement": "IL-2 [ ]pg/ml (2)", "setting": "[4]; 10 uM", "value": 25.65, "unit": "pg/mL"}, {"measurement": "IL-2 % Control (2)", "setting": "[4]; 10 uM", "value": 125.74, "unit": "%"}, {"measurement": "IL-2 [ ]pg/ml (3)", "setting": "[4]; 10 uM", "value": 81.78, "unit": "pg/mL"}, {"measurement": "IL-2 % Control (3)", "setting": "[4]; 10 uM", "value": 59.13, "unit": "%"}, {"measurement": "IL-2 [ ]pg/ml (1)", "setting": "[4]; 30 uM", "value": -2.80, "unit": "pg/mL"}, {"measurement": "IL-2 % Control (1)", "setting": "[4]; 30 uM", "value": "−13.73", "unit": "%"}, {"measurement": "IL-2 [ ]pg/ml (2)", "setting": "[4]; 30 uM", "value": -3.00, "unit": "pg/mL"}, {"measurement": "IL-2 % Control (2)", "setting": "[4]; 30 uM", "value": "−14.71", "unit": "%"}, {"measurement": "IL-2 [ ]pg/ml (3)", "setting": "[4]; 30 uM", "value": 76.25, "unit": "pg/mL"}, {"measurement": "IL-2 % Control (3)", "setting": "[4]; 30 uM", "value": 55.14, "unit": "%"}, {"measurement": "IL-2 [ ]pg/ml (1)", "setting": "[4]; 100 uM", "value": -12.55, "unit": "pg/mL"}, {"measurement": "IL-2 % Control (1)", "setting": "[4]; 100 uM", "value": "−61.52", "unit": "%"}, {"measurement": "IL-2 [ ]pg/ml (2)", "setting": "[4]; 100 uM", "value": -12.80, "unit": "pg/mL"}, {"measurement": "IL-2 % Control (2)", "setting": "[4]; 100 uM", "value": "−62.75", "unit": "%"}, {"measurement": "IL-2 [ ]pg/ml (3)", "setting": "[4]; 100 uM", "value": 8.11, "unit": "pg/mL"}, {"measurement": "IL-2 % Control (3)", "setting": "[4]; 100 uM", "value": 5.87, "unit": "%"}, {"measurement": "cell viability", "setting": "[5]", "value": "without affecting cell viability"}]}, {"compound": "(S,S and RR)2-Benzyl-2,3-dihydro-1H,1′H-2,2′-biinden-1-ol [Compound 6]", "values": [{"measurement": "inhibition of β-hexosaminidase release", "setting": "[1]; RBL-2H3 cells stimulated by calcium ionophore A23187, Bioorg. Med. Chem. Lett. 19(20), 2009", "value": "dose-dependant inhibition"}, {"measurement": "inhibition of β-hexosaminidase release", "setting": "[1]; [6]", "value": "dose dependent inhibition"}]}]}
